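96-well plates; 48 h exposure; 5 concentrations. Endpoints by linear interpolation between flanking doses. Not reached: highest tested concentration assigned. TGI denotes the concentration required for complete inhibition of growth.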
Columns and labels:
Experiment in all cases: NCI tumour cell line growth inhibition, 48 h
SW-620 colon = system: SW-620 colon
MALME-3M melanoma = system: MALME-3M melanoma
HL-60(TB) leukemia = system: HL-60(TB) leukemia
SN12C renal = system: SN12C renal
M14 melanoma = system: M14 melanoma
UO-31 renal = system: UO-31 renal
786-0 renal = system: 786-0 renal
HCT-116 colon = system: HCT-116 colon
K-562 leukemia = system: K-562 leukemia
HS 578T breast = system: HS 578T breast
MDA-MB-435 = system: MDA-MB-435
HCT-15 colon = system: HCT-15 colon
NCI-H226 lung = system: NCI-H226 lung
OVCAR-3 ovarian = system: OVCAR-3 ovarian
MOLT-4 leukemia = system: MOLT-4 leukemia
U251 CNS = system: U251 CNS
MDA-N = system: MDA-N

| Structure (SMILES) | TGI (SW-620 colon) [µM] | TGI (MALME-3M melanoma) [µM] | TGI (HL-60(TB) leukemia) [µM] | TGI (SN12C renal) [µM] | TGI (M14 melanoma) [µM] | TGI (UO-31 renal) [µM] | TGI (786-0 renal) [µM] | TGI (HCT-116 colon) [µM] | TGI (K-562 leukemia) [µM] | TGI (HS 578T breast) [µM] | TGI (MDA-MB-435) [µM] | TGI (HCT-15 colon) [µM] | TGI (NCI-H226 lung) [µM] | TGI (OVCAR-3 ovarian) [µM] | TGI (MOLT-4 leukemia) [µM] | TGI (U251 CNS) [µM] | TGI (MDA-N) [µM] |
| --- | --- | --- | --- | --- | --- | --- | --- | --- | --- | --- | --- | --- | --- | --- | --- | --- | --- |
| C[N+](C)(C)CC(=O)N/N=C/c1oc(-c2cccc([N+](=O)[O-])c2)c(-c2cccc([N+](=O)[O-])c2)c1[N+](=O)[O-] | > 100 | > 100 | > 100 | > 100 | > 100 | > 100 | > 100 | > 100 | – | – | – | – | – | – | – | – | – |
| O=C(Nc1sccc1S(=O)(=O)c1ccc(Cl)cc1)c1ccc(Cl)cc1Cl | > 100 | > 100 | > 100 | > 100 | > 100 | > 100 | > 100 | > 100 | > 100 | > 100 | > 100 | > 100 | > 100 | > 100 | > 100 | > 100 | – |
| CCCC1=NC(C(F)(F)F)(C(F)(F)F)N=C(N2CCOCC2)O1 | > 100 | > 100 | > 100 | > 100 | > 100 | > 100 | > 100 | > 100 | > 100 | > 100 | > 100 | > 100 | > 100 | > 100 | > 100 | > 100 | – |
| Cc1no[n+]([O-])c1/C=N/NS(=O)(=O)c1ccccc1 | > 100 | > 100 | > 100 | > 100 | > 100 | > 100 | > 100 | > 100 | > 100 | – | – | > 100 | – | > 100 | > 100 | > 100 | – |
| CC1(Br)S(=O)(=O)OCCOS1(=O)=O | > 100 | > 100 | > 100 | > 100 | > 100 | > 100 | > 100 | > 100 | > 100 | – | – | > 100 | > 100 | > 100 | > 100 | > 100 | – |
| CC(C)(C)OC(=O)N(CCCCNC(=O)c1ccccc1)CCCNC(=O)c1ccccc1 | > 100 | – | > 100 | > 100 | > 100 | > 100 | > 100 | > 100 | > 100 | > 100 | > 100 | > 100 | > 100 | > 100 | > 100 | > 100 | – |
| COc1ccc(C(=O)/C=C/c2ccc(OCC#N)cc2)cc1OC | 23.4 | 38.8 | – | 32.3 | 37.3 | 32.6 | 86.7 | 17.2 | > 100 | > 100 | 44.7 | 45.5 | 37.9 | 49.1 | 63.6 | 29.6 | – |
| c1csc(-c2cscc2-c2cccs2)c1 | > 100 | – | > 100 | > 100 | > 100 | > 100 | > 100 | > 100 | > 100 | > 100 | > 100 | > 100 | 65.4 | 47.3 | > 100 | > 100 | – |
| COC(=O)NN/C=C(\C=Nc1ccccc1)[N+](=O)[O-] | > 100 | – | > 100 | > 100 | > 100 | > 100 | > 100 | > 100 | > 100 | – | – | > 100 | – | > 100 | > 100 | > 100 | – |
| COC(=O)c1ccc(-n2c(C)nc(=O)c(-c3ccccc3)c2C)cc1 | > 100 | > 100 | > 100 | > 100 | > 100 | > 100 | > 100 | > 100 | > 100 | > 100 | > 100 | > 100 | > 100 | > 100 | > 100 | > 100 | – |
| c1ccc2c(c1)ncn2CCn1ccnc1 | > 100 | > 100 | > 100 | > 100 | > 100 | > 100 | > 100 | – | > 100 | > 100 | > 100 | > 100 | > 100 | > 100 | > 100 | > 100 | – |
| CC(=O)n1cc(CC(C)O)c(=O)[nH]c1=O (stereo not given) | > 100 | – | > 100 | 31.2 | > 100 | > 100 | > 100 | > 100 | > 100 | – | – | > 100 | > 100 | > 100 | > 100 | > 100 | – |
| CC(C)(C)c1cc(Oc2ccc(C#N)c(C#N)c2)cc(C(C)(C)C)c1 | – | > 100 | > 100 | > 100 | > 100 | > 100 | > 100 | > 100 | > 100 | – | – | > 100 | > 100 | > 100 | > 100 | > 100 | – |
| CCOC(=O)c1ncn2c1[nH]c(=O)c1ccccc12 | > 100 | > 100 | – | > 100 | > 100 | > 100 | > 100 | > 100 | > 100 | – | – | > 100 | > 100 | > 100 | > 100 | > 100 | – |
| CC(=O)N1N=C(c2ccccc2Nc2ccccc2C2=NN(C(C)=O)C(c3ccccc3)O2)OC1c1ccccc1 (stereo not given) | > 100 | > 100 | – | > 100 | > 100 | > 100 | > 100 | > 100 | > 100 | – | > 100 | > 100 | > 100 | > 100 | > 100 | > 100 | > 100 |
| Nc1cccc(/C=C/CN2CCN(CCOC(c3ccccc3)c3ccccc3)CC2)c1 | 33.9 | 34.7 | 22.9 | 36 | 25.9 | 27.4 | 30.5 | 25.4 | 16.3 | 48 | 28.1 | 26.1 | 40.4 | 29.1 | 19.2 | 30.5 | – |
| OC1=CN=C(C2CC2)Oc2ccccc21 | > 100 | > 100 | > 100 | > 100 | > 100 | > 100 | > 100 | > 100 | > 100 | – | – | > 100 | > 100 | > 100 | > 100 | > 100 | – |
| C=CC(Br)(CBr)CCC(Br)C(C)(C)Br (stereo not given) | 26.6 | 30.4 | – | 29.7 | 28.3 | 28.8 | 25.6 | 28.3 | 66 | – | – | 31.8 | 32.8 | – | 35.8 | 27.6 | – |
| O=C(OCC(Cl)(Cl)Cl)N1CC[C@@H](C2CCCCC2)C1 | – | – | – | > 100 | 96.5 | 40.2 | 43 | 80.7 | 50.1 | – | – | 35.9 | – | 32.2 | 56.4 | 18.9 | > 100 |
| c1ccc2c(c1)ccc1nc3ccccn3c12 | > 100 | > 100 | > 100 | > 100 | > 100 | > 100 | > 100 | – | > 100 | > 100 | > 100 | > 100 | > 100 | > 100 | > 100 | > 100 | – |
| CCNC(=S)Nc1c(C#N)c2n(c1C(=O)OCC)CCCCC2 | > 100 | – | > 100 | – | > 100 | > 100 | > 100 | > 100 | > 100 | > 100 | > 100 | > 100 | > 100 | – | > 100 | > 100 | – |
| O=C(Cc1nc2ccc(C(=O)c3ccccc3)cc2[nH]c1=O)C(=O)Nc1ccc(C(F)(F)F)cc1[N+](=O)[O-] | > 100 | > 100 | > 100 | > 100 | > 100 | > 100 | > 100 | > 100 | > 100 | – | – | > 100 | > 100 | > 100 | > 100 | > 100 | – |
| Cc1ccc(S(=O)(=O)C(C#N)c2nc3ccccc3nc2N2CCOCC2)cc1 (stereo not given) | > 100 | 63.5 | – | 96.4 | > 100 | > 100 | > 100 | 38.4 | – | – | – | > 100 | > 100 | 91.6 | 58.7 | 35.8 | – |
| c1csc(-c2sc(-c3ccsc3)cc2Cc2ccsc2)c1 | > 10 | > 10 | > 10 | > 10 | > 10 | – | > 10 | – | > 10 | – | > 10 | > 10 | – | – | > 10 | – | > 10 |
| CC1=C(S(=O)c2ccc(C)cc2)CCC2(CCCCO2)O1 (stereo not given) | > 100 | > 100 | > 100 | > 100 | – | > 100 | > 100 | > 100 | > 100 | > 100 | > 100 | > 100 | > 100 | > 100 | > 100 | > 100 | – |
| O=C(Nc1ccccc1)c1cc2c(cc1Cl)SC(NNCCO)=NS2(=O)=O | > 100 | – | > 100 | – | > 100 | > 100 | > 100 | > 100 | > 100 | > 100 | > 100 | > 100 | > 100 | – | > 100 | > 100 | – |

From PubChem BioAssay (NCI)
